Data on three molecules can be found in US20070009484A1, “Compositions and methods involving MDA-7 for the treatment of cancer” (Board of Regents, The University of Texas System, priority 2005, published 2007).

Data set [1] has as its system MCF7/Her18 cells. The data set is described as follows: Prostaglandin E2 (PGE2) measurement. Particulars: 72-hour treatment, vectors MOI 2000 vp/cell, celecoxib 20 uM. It counts as cell-based, human. As to the method:
(§1) After a 72-hr incubation, 3 μl of arachidonic acid (1 mM) was added to the culture media to boost the PGE2 production for 30 minutes. The supernatant was collected and stored at −80° C. until PGE2 concentration was measured using an enzyme-linked immunoassay kit (Cayman Chemical, Ann Arbor, Mich.) according to the manufacturer's manual. The final results from the triplicated values were expressed as pg/ml.

The test system of data set [2] is MDA-MB-436 cells. The data set can be described thus: Prostaglandin E2 (PGE2) measurement. It counts as cell-based, human. Particulars: 72-hour treatment, vectors MOI 1000 vp/cell, celecoxib 50 uM. On the procedure: as §1
In data set [3] the test system is MCF7/Her18 cells. The data set is described as follows: Cell cycle and apoptosis assay (PI, Annexin V/FITC, TUNEL). It counts as cell-based, human. The text has this: (§2) All the cultures were subconfluent at the time of harvest. Harvested cells were fixed with ice-cold 80% ethanol, stained with propidium iodide (PI) (Sigma, St. Louis, Mo.), and analyzed using a flow cytometer (FCM) (EPICS XL-MCL, Coulter, Miami, Fla.) as described previously. Cells floating in the media and trypsinized adherent cells were harvested and pelleted. The collected cells were washed, and then stained with Annexin V-fluorescein isothiocyanate (FITC)/PI using an Annexin V/FITC apoptosis detection kit (BD Biosciences, Franklin Lake, N.J.). The BrdU (5-bromo-2-deoxyuridine)/terminal deoxynucleotidyl transferase (TdT)-mediated 2′-deoxyuridine 5′-triphosphate (dUTP)-biotin nick end labeling (TUNEL) assay (APO-Direct, BD Biosciences, Franklin Lake, N.J.) was performed according to the manufacturer's protocol. Briefly, paraformaldehyde-fixed cells were washed and incubated with staining solution (10 μl of TdT reaction buffer, 0.75 μl of TdT enzyme, and 8 μl of FITC-dUTP) overnight. The following day, cells were rinsed and resuspended in 1 ml of PI/RNase solution. Following incubation in the dark for 30 minutes at room temperature, flow cytometry was performed to obtain the percentage of apoptotic cells. Cell cycles were analyzed with a program combined with the FCM (Multicycle, Phoenix Flow System, San Diego, Calif.).

The subject of data set [4] is MDA-MB-436 cells. The data set is described as above. It counts as cell-based, human.
Description: as §2

The conditions of data set [5]: cited from earlier work.
The next data set has as its system T47D cells. The data set is described as follows: 3H-thymidine cell proliferation assay. It counts as cell-based, human. Particulars: Taxotere 0.5-2 ng/mL, 3 days.
Another data set relates to MCF-7 cells. The data set is described as follows: 3H-thymidine cell proliferation assay. It counts as cell-based, human. Particulars: Taxotere 0.5-2 ng/mL, 3 days.
A further data set concerns H1299 cells. The data set can be described thus: Cell viability assay (trypan blue exclusion). Particulars: Ad-mda7 1000 vp/cell; Bivacizumab 0.78, 1.56, 3,125 ug/ml; up to 72 hours. It counts as cell-based. On the procedure:
Cells treated with PBS served as a control. Cells were harvested at various time points as listed in figures and subjected to cell viability assay as previously described (Saeki et al., 2000).
(§3) H1299 cells (2×10^5/well) and HUVECs (3×10^5/well) were seeded in six-well plates. […] At 48 hours and […] after the treatment, cells were trypsinized and analyzed for trypan blue cell exclusion assay.

The subject of data set [6] is HUVECs. The data set can be described thus: Cell viability assay (trypan blue exclusion). Particulars: Ad-mda7 1000 vp/cell; Bivacizumab 0.78, 1.56, 3,125 ug/ml; 48 h and 72 h. It counts as cell-based, human. On the procedure: as §3
Data set [7] has as its system HUVECs. The data set can be described thus: Endothelial cell proliferation with conditioned medium from treated H1299 cells. It counts as cell-based, human. Particulars: medium collected at 48 h; compared to PBS and Ad-luc. As to the method: For analysis of the effect of conditioned medium from Ad-mda7-treated H1299 on endothelial cell proliferation, human umbilical vein endothelial cells (HUVECs) were seeded in six-well plates (3×10^5 cells/well). […] HUVECs were incubated for an additional 3 days and later harvested and subjected to cell viability assay (Ramesh et al., 2003; Mhashilkar et al., 2001).

The test system of data set [8] is H1299 tumors in nude mice. The data set is described as follows: Subcutaneous H1299 xenograft. It counts as in vivo, mouse. Particulars: vector 1×10^10 vp intratumorally, Avastin 5 mg/Kg (100 ug/body) i.p., twice a week, 28 days. As to the method: Bivacizumab (100 ug/body) was given i.p. twice a week. Animals were weighed weekly and tumor growth was measured thrice a week as described previously (Saeki et al., 2002; Ramesh et al., 2003). At 28 days after the first treatment, all animals were killed via CO2 inhalation, and tumors were collected for histopathological examination and Western blot analysis. Two different sets of experiments were done.

Marks after values point to notes of the source that are not given here.

Description for MCF-7 cells: (§4) Cells were plated at 500-2000 cells/well in 96-well format for ^3H-thymidine incorporation-assays, or at 10^5-10^6 cells/well in a 6-well plate format for protein expression, trypan blue viability or apoptosis assays. In drug combination studies, drugs were added once just prior to addition of vectors and cells were continuously exposed to agents.
(§5) The cells were harvested using Trypsin/EDTA (GIBCO), collected on a Filter using a Packard Filtermate cell Harvester, and washed in deionized water and methanol following the manufacturer protocols. The filters were dried and analyzed using a Matrix 9600 (Packard).
Description for T47D cells: as §4, §5

As to `Cc1ccc(-c2cc(C(F)(F)F)nn2-c2ccc(S(N)(=O)=O)cc2)cc1` [Celecoxib, 4-[5-(4-methylphenyl)-3-(trifluoromethyl)-1H-pyrazol-1-yl]benzenesulfonamide], the entries for the “Prostaglandin E2 production” value in the data set on MCF7/Her18 cells [1] and in the data set with MDA-MB-436 cells [2] were 16.7^§ pg/ml and 116.7^§ pg/ml, respectively. In addition, the cell cycle effect result in the data set with MCF7/Her18 cells [3] (72-hour treatment) and in the data set with MDA-MB-436 cells [4] (72-hour treatment) was “blocked more cells at the G1 checkpoint than Ad-mda7” each time. Moreover, the “apoptosis (Annexin V/FITC, TUNEL)” value with MCF7/Her18 cells [3] (72-hr treatment) and in the data set on MDA-MB-436 cells [4] (72-hr treatment) was “promoted apoptosis” throughout. For the same molecule, the effective half-life result in [5] (fasted conditions) is given as “roughly 11 hours”. The “time of peak plasma levels after an oral dose” value in data set [5] (in vivo, po) is reported as “roughly 3 hours”. For the same molecule, the “delay of plasma levels with a high fat meal” value in [5] (in vivo) is 1 to 2 h. In [5] (in vivo), the “increase in total absorption with a high fat meal” value is 10-20%. In addition, the “dose excreted in feces” value in data set [5] (single dose) is 57%. In addition, the “dose excreted in the urine” value in [5] (single dose) is 27%.

For the molecule `CC(=O)O[C@@]12CO[C@@H]1C[C@H](O)[C@@]1(C)C(=O)[C@H](O)C3=C(C)[C@@H](OC(=O)[C@H](O)[C@@H](NC(=O)OC(C)(C)C)c4ccccc4)C[C@@](O)([C@@H](OC(=O)c4ccccc4)[C@H]21)C3(C)C` [Taxotere, docetaxel], the “inhibition of thymidine incorporation” value in the data set with T47D cells and in the data set on MCF-7 cells was “approximately 40%” each time.

As for “Bevacizumab: VEGF inhibitor, monoclonal antibody that specifically binds VEGF”, the results for the “cell viability / toxicity” value in the data set with H1299 cells and in the data set on HUVECs [6] were “did not show harmful effect” and “inhibited HUVEC viability”, respectively. Further, the “HUVEC proliferation with conditioned medium from treated H1299 cells” value with HUVECs [7] is given as “significantly inhibited HUVEC proliferation”. For the same molecule, the tumor growth entry in data set [8] is listed as “Significant inhibition of tumor growth”.
